In patent US20240261302A1, “METHODS OF TREATING NEURODEGENERATIVE DISEASES OR CONDITIONS” (FloraScience Inc., priority 2023, published 2024):

Tests used:
[1] = Cell viability after RSL3 with/without FCCP (CyQUANT DNA-based assay, fluorescence microscopy), mt-GFP/mCherry-Parkin cells; design: species or system mouse; conditions: mouse, HT22 mt-GFP/mCherry-Parkin cells, FCCP treatment 40 hr, read-out: decrease in cell viability compared to the vehicle control
[2] = Cell viability after RSL3 with/without FCCP (CyQUANT DNA-based assay, fluorescence microscopy), mt-GFP WT cells; design: species or system mouse; conditions: mouse, HT22 mt-GFP WT cells, FCCP treatment 40 hr, read-out: decrease in cell viability compared to the vehicle control
[3] = system: HT22 cells; test: Mitochondrial Membrane Potential Assay (JC-10) in HT22 cells; format: cell-based, mouse; conditions: 50 nM, 4 hr
Procedure: Mitochondrial Membrane Potential Assay. Cells seeded at 5,000 cells/well onto 96-well black walled plates were treated with test compounds at the desired concentrations under the culture condition described above. The mitochondrial uncoupler FCCP at 2 μM was used as a reference control. After the desired treatments for 4 hr, the cells were subjected to a JC-10 mitochondrial membrane potential assay according to the manufacturer's instruction. Fluorescence intensities (Ex/Em=490/525 nm, and Ex/Em=540/590 nm) of each well were monitored on a SpectraMax M5 microplate reader. The ratio of fluorescence intensity (590/525 nm) was used to determine the mitochondrial membrane potential (ΔΨm). Decreasing ratios indicate mitochondrial membrane depolarization. Samples were analyzed in eight to sixteen wells per independent experiment (n=8-16). Results were verified by live-cell imaging under a fluorescence microscope.

[4] = system: HT22 cells; test: Ferroptosis Assay (RSL3-induced cell death, MTT); format: cell-based, mouse; conditions: 50 nM, 16 hr, vs control group
Procedure: Ferroptosis Assay: HT22 cells were seeded at 3,000 cells/well in 96-well tissue culture plates in DMEM plus 10% FBS and 1% antibiotics. After 24 hr of plating, the cells were pretreated with different concentrations of test compounds or a vehicle control for 1 hr followed by coincubation with 50 nM RSL3 to induce the cell death cascade. After 16 hr of treatment, cell viability was measured by the MTT assay. Optical absorbance was measured at 570 nm on a SpectraMax M5 microplate reader. Samples were analyzed in eight to sixteen wells per independent experiment (n=8-16). Results were presented as the percentage of the controls with vehicle alone.

[5] = system: HT22 cells; test: MitoTracker Assay (mitochondrial mass); format: cell-based, mouse; conditions: 50 nM, vs control cells
Procedure: MitoTracker Assay. HT22 cells were seeded onto 96-well black walled plates at a density of 5,000 cells/well in DMEM supplemented with 10% FBS and 1% antibiotics. After the desired treatments, MitoTracker Orange CM−H2TMRos (Ex/Em=554/576 nm) and Hoechst 33342 (Ex/Em=360/460 nm) dyes were added to the cells and incubated under the same culture condition for 2 hr. Fluorescence was measured on a SpectraMax M5 microplate reader. Experiments were performed according to the manufacturer's instructions. Data were normalized for total protein/well. Each condition was analyzed in sixteen wells per independent experiment (n=16). Results were presented as the percentage of the controls with vehicle alone. Results were verified by live-cell imaging under a fluorescence microscope.

[6] = system: HT22 mt-GFP/mCherry-Parkin cells; test: Cell viability after RSL3 with/without FCCP (CyQUANT DNA-based assay, fluorescence microscopy), mt-GFP/mCherry-Parkin cells; design: species or system mouse
[7] = system: HT22 mt-GFP WT cells; test: Cell viability after RSL3 with/without FCCP (CyQUANT DNA-based assay, fluorescence microscopy), mt-GFP WT cells; design: species or system mouse
[8] = system: HT22 cells; test: Cellular Lipid Peroxidation Measurement (C11-BODIPY); format: cell-based, mouse; conditions: 50 nM, 16 hr
Procedure: Lipid Peroxidation MeasurementsHT22 cells were seeded onto 96-well black walled plates at a density of 3,000 cells/well in DMEM supplemented with 10% FBS and 1% antibiotics. After the desired treatments, cells were labeled with 2.5 μM C11-BODIPY 581/591 (oxidized form Ex/Em=488/520 nm) at 37° C. for 2 hr. Experiments were performed according to the manufacturer's instructions. Fluorescence was measured on a SpectraMax M5 microplate reader. Data were normalized for total protein/well. Each condition was analyzed in twelve wells per independent experiment (n=12). Results were presented as the percentage of the controls with vehicle alone. Results were verified by live-cell imaging under a fluorescence microscope.

Row | Structure (SMILES) | cytotoxicity at 40 hr, 5 μM [1] [%] | cytotoxicity at 40 hr, 5 μM [2] [%] | effect on ΔΨm [3] | cell death by inducer alone [4] | decrease of MitoTracker intensity [5] [%] | cell viability in FCCP pretreated cells [6] | cell viability in FCCP pretreated cells [7] | increase of cellular lipid peroxidation level [8]
1 | N#CC(C#N)=NNc1ccc(OC(F)(F)F)cc1 [FCCP, carbonyl cyanide-4-(trifluoromethoxy)phenylhydrazone, reference compound] | ~40 | ~40 |  |  |  |  |  | 
2 | COC(=O)c1ccc([C@@H]2c3[nH]c4ccccc4c3C[C@@H](C(=O)OC)N2C(=O)CCl)cc1 [RSL3, reference compound] |  |  | no impact | 40-60% | 8.4 | 10-15% | 10-15% | approximately 30%
